Values of other authors, collected in paper PMC10425210 (The Journal of Clinical Investigation, 2023).

What was measured:
[1] = design: method as in PMID 29008798; conditions: cited from earlier work
SHIV109CP3 = system: SHIV109CP3; design: method as in PMID 31175822; conditions: cited from earlier work

Question: Which “adverse finding during clinical development” value [1] does the source give for `C#C[C@]1(CO)O[C@@H](n2cnc3c(N)nc(F)nc32)C[C@@H]1O` [islatravir] here?
Answer: unanticipated lymphopenia

Question: And the prevention of infection (SHIV109CP3)?
Answer: proven efficacy at preventing infection
